Earlier results in patent publication US20220193200A1, “TANNIC ACID/FE (III) NANOPARTICLES AND METHODS OF DRUG DELIVERY” (The Johns Hopkins University, priority 2019, published 2022).

In the case of O=C(OC[C@H]1O[C@@H](OC(=O)c2cc(O)c(O)c(OC(=O)c3cc(O)c(O)c(O)c3)c2)[C@H](OC(=O)c2cc(O)c(O)c(OC(=O)c3cc(O)c(O)c(O)c3)c2)[C@@H](OC(=O)c2cc(O)c(O)c(OC(=O)c3cc(O)c(O)c(O)c3)c2)[C@@H]1OC(=O)c1cc(O)c(O)c(OC(=O)c2cc(O)c(O)c(O)c2)c1)c1cc(O)c(O)c(OC(=O)c2cc(O)c(O)c(O)c2)c1 [tannic acid, Tannic acid], the pKa is listed as “around 6”.
